Results as given in ChEMBL document CHEMBL1641531, “Receptor activity and conformational analysis of 5'-halogenated resiniferatoxin analogs as TRPV1 ligands” (Bioorg Med Chem Lett, 2011).

Legend:
[1] = target: T1, Transient receptor potential cation channel subfamily V member 1 (Rattus norvegicus, UniProt O35433); assay: Displacement of [3H]RTX from rat […] expressed in CHO cells by competitive binding assay; type: cell-based
[2] = target: T1, Transient receptor potential cation channel subfamily V member 1; assay: Agonist activity at rat TRPV1 expressed in CHO cells assessed as 45Ca2+ uptake; type: functional, cell-based
[3] = target: T1, Transient receptor potential cation channel subfamily V member 1; assay: (§1) Antagonist activity at rat TRPV1 expressed in CHO cells assessed as response to capsaicin-stimulated 45Ca2+ uptake; type: functional, cell-based
[4] = target: Transient receptor potential cation channel subfamily V member 1 (Rattus norvegicus) (UniProt O35433); assay: as §1; type: functional, cell-based; parameters: scale not given: the % may be the effect or the level left
Transient receptor potential cation channel subfamily V member 1 (Rattus norvegicus), sequence (O35433 whole entry): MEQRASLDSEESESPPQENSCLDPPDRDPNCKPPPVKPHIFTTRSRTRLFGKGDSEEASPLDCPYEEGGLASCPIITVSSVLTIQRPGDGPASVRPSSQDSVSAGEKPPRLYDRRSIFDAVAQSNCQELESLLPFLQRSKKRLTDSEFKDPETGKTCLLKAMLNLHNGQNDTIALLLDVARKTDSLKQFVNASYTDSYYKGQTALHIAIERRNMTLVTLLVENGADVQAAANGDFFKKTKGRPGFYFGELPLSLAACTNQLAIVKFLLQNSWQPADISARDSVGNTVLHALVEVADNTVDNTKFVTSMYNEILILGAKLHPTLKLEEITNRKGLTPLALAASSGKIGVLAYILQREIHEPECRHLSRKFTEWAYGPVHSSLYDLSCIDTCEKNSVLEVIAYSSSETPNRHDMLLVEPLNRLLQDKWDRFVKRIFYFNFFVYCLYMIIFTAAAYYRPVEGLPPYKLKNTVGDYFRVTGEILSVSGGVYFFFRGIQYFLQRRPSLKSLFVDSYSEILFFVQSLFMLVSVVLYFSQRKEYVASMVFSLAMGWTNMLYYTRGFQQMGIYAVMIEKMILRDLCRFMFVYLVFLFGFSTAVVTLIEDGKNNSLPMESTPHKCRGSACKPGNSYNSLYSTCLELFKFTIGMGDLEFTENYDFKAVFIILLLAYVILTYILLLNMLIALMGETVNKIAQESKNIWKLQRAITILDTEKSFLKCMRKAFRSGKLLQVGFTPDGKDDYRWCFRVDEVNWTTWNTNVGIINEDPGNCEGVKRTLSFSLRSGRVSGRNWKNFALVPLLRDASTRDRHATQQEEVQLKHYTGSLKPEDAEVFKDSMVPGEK

[5] = target: Transient receptor potential cation channel subfamily V member 1 (Rattus norvegicus) (UniProt O35433); assay: Agonist activity at rat TRPV1 expressed in CHO cells assessed as 45Ca2+ uptake relative to capsaicin; type: functional, cell-based

T1 sequence (O35433 whole entry): as above

C=C(C)[C@@]12C[C@@H](C)C34OC(Cc5ccccc5)(OC1[C@@H]3C=C(COC(=O)Cc1cc(F)c(O)c(OC)c1)C[C@]1(O)C(=O)C(C)=C[C@@H]41)O2 (stereo partly specified)
Ki [1]: 0.26 nM | EC50 ([2]; read-out: EC50): 1.88 nM | Ki ([3]; cho): Not Active

C=C(C)[C@@]12C[C@@H](C)C34OC(Cc5ccccc5)(OC1[C@@H]3C=C(COC(=O)Cc1cc(Cl)c(N)c(OC)c1)C[C@]1(O)C(=O)C(C)=C[C@@H]41)O2 (stereo partly specified)
Ki [1]: 0.85 nM | Activity [4]: 56% | Activity [5]: 34%

C=C(C)[C@@]12C[C@@H](C)C34OC(Cc5ccccc5)(OC1[C@@H]3C=C(COC(=O)Cc1ccc(N)c(OC)c1)C[C@]1(O)C(=O)C(C)=C[C@@H]41)O2 (stereo partly specified)
Ki [1]: 0.13 nM | EC50 ([2]; read-out: EC50): 0.46 nM | Ki ([3]; cho): Not Active

C=C(C)[C@@]12C[C@@H](C)C34OC(Cc5ccccc5)(OC1[C@@H]3C=C(COC(=O)Cc1cc(I)c(O)c(OC)c1)C[C@]1(O)C(=O)C(C)=C[C@@H]41)O2 (stereo partly specified)
Ki [1]: 0.61 nM | EC50 ([2]; cho): Not Active | Ki ([3]; read-out: Ki): 12.2 nM

C=C(C)[C@@]12C[C@@H](C)C34OC(Cc5ccccc5)(OC1[C@@H]3C=C(COC(=O)Cc1cc(Br)cc(Br)c1)C[C@]1(O)C(=O)C(C)=C[C@@H]41)O2 (stereo partly specified)
Ki [1]: 110 nM | EC50 ([2]; read-out: EC50): 1070 nM | Ki ([3]; cho): Not Active

C=C(C)[C@@]12C[C@@H](C)C34OC(Cc5ccccc5)(OC1[C@@H]3C=C(COC(=O)Cc1cc(Br)c(OC(C)=O)c(OC)c1)C[C@]1(O)C(=O)C(C)=C[C@@H]41)O2 (stereo partly specified)
Ki [1]: 0.3 nM | Activity [4]: 30% | Activity [5]: 37%

C=C(C)[C@@]12C[C@@H](C)C34OC(Cc5ccccc5)(OC1[C@@H]3C=C(COC(=O)Cc1cc(F)c(N)c(OC)c1)C[C@]1(O)C(=O)C(C)=C[C@@H]41)O2 (stereo partly specified)
Ki [1]: 0.7 nM | EC50 ([2]; read-out: EC50): 1.14 nM | Ki ([3]; cho): Not Active

C=C(C)[C@@]12C[C@@H](C)C34OC(Cc5ccccc5)(OC1[C@@H]3C=C(COC(=O)Cc1cc(Br)c(N)c(OC)c1)C[C@]1(O)C(=O)C(C)=C[C@@H]41)O2 (stereo partly specified)
Ki [1]: 1.99 nM | EC50 ([2]; cho): Not Active | Ki ([3]; read-out: Ki): 2.81 nM

C=C(C)[C@@]12C[C@@H](C)C34OC(Cc5ccccc5)(OC1[C@@H]3C=C(COC(=O)Cc1cc(Br)c(O)c(OC)c1)C[C@]1(O)C(=O)C(C)=C[C@@H]41)O2 (stereo partly specified)
Ki [1]: 0.17 nM | Ki ([3]; read-out: Ki): 7.2 nM | Activity [5]: 19%

C=C(C)[C@@]12C[C@@H](C)C34OC(Cc5ccccc5)(OC1[C@@H]3C=C(COC(=O)Cc1cc(Cl)c(O)c(OC)c1)C[C@]1(O)C(=O)C(C)=C[C@@H]41)O2 (stereo partly specified)
Ki [1]: 1.03 nM | EC50 ([2]; read-out: EC50): 5.7 nM | Ki ([3]; cho): Not Active

C=C(C)[C@]12C[C@@H](C)[C@@]34O[C@](Cc5ccccc5)(O[C@@H]1[C@@H]3C=C(COC(=O)Cc1ccc(O)c(OC)c1)C[C@]1(O)C(=O)C(C)=C[C@@H]41)O2 [RESINIFERATOXIN]
Ki ([3]; cho): Not Active
